# From US20230220387A1, “D-SERINE TRANSPORT MODIFIER AND SCREENING METHOD THEREOF, AND SCREENING METHOD OF D-SERINE TRANSPORTER PROTEIN” (Kagami Inc., priority 2019, published 2023)
# “Also recorded” adds a separate entry of the source.
# Columns and labels:
# Format in all cases: cell-based
# [1] = system: HEK293 cells transiently transfected with a cDNA clone of a transporter candidate; assay: Cytotoxicity test (XTT) for screening of D-serine transporter candidates
# Experimental: (§1) 2-4. Cell survival measurement A D-serine toxicity test was carried out using HEK293 in a transient expression system. The cells were seeded in a 96-well plate at 10,000 cells/well, and transfected with […] DNA (pCMV14 as Mock, pCMV14-hSLC5A8-3×FLAG as SMCT1 and pCMV14-hSLC5A12-3×FLAG as SMCT2). At 24 hours after transfection they were treated with D-serine and further incubated for 2 days. The proliferated cell count was determined by XTT measurement. The XTT solution comprised 1 mg/ml of XTT (2,3-Bis-(2-Methoxy-4-nitro-5-sulfophenyl)-2H-tetrazolium-5-carboxanilide, disodium salt: Biotium, CA, USA) mixed with 7.5 μg/ml of Phenazine methosulfate (Nacalai Tesque, Inc.), and was added to the cultured cells. The incubation reaction was carried out for 4 hours at 37° C., 5% CO2. The absorbance at 450 nm was then measured with a microplate reader.
# A total of 19 D-serine transporter candidates were selected from the proteome results. A cytotoxicity test for screening of D-serine transporter was developed based on the idea that intracellular D-serine accumulated via D-serine transporter function induces cytotoxicity. HEK293 cells were transiently transfected with a cDNA clone and the cells were treated with 15 mM or 25 mM D-serine to observe the initial stage and stationary stage of the toxicity effect. […]
# Flp-In TREx293 cells = assay: Cell proliferation by XTT assay in Flp-In TREx293 cells treated with L- or D-serine
# Experimental: as §1
# (§2) A toxicity test for stable cells was carried out using an FlpIn293TR-stable cell line. The cells were seeded in a poly-D-lysine-coated 96-well plate at 6.5×10^3 cells/well (Mock) and 8×10^3 cells/well (hSLC5A8 and hSLC5A12 cells), while in antibiotic-free DMEM+dialyzed FBS medium. After 24 hours, they were treated with L- or D-serine at different concentrations and 1 mg/L of doxycycline hyclate was added to induce recombination gene expression. For the ASCT2 knockdown experiment, the seeded cells were transfected after 12 hours with ASCT2 siRNA at 2 pmol/well, using Lipofectamine 3000. The effect of ibuprofen was analyzed by simultaneous addition with D-serine treatment. The cells were cultured for 2 days to 80% confluence. The proliferated cell count was determined by XTT measurement in the same manner as described above.
# [2] = system: FlpIn293TR-hSLC5A8-3×FLAG (SMCT1)-stable cell line; assay: Toxicity test (XTT) in SMCT1-stable cell line; conditions: SMCT1 cells compared to Mock cells
# Experimental: as §2
# [3] = system: FlpIn293TR-hSLC5A12-3×FLAG (SMCT2)-stable cell line; assay: Toxicity test (XTT) in SMCT2-stable cell line; conditions: FlpIn293TR-Mock or SMCT2-stable cell line; SMCT2 cells compared to Mock cells
# Experimental: as §2
# [4] = system: HEK293 cells transiently transfected with pCMV14-hSLC5A8-3×FLAG (SMCT1); assay: D-serine toxicity test in transient expression system, SMCT1; conditions: SMCT1-expressing HEK293 cells; 2 days; XTT
# Experimental: as §1
# [5] = system: HEK293 cells transiently transfected with pCMV14-hSLC5A12-3×FLAG (SMCT2); assay: D-serine toxicity test in transient expression system, SMCT2; conditions: SMCT2-expressing HEK293 cells; 2 days; XTT
# Experimental: as §1
# HEK293 cells = assay: [3H]D-serine transport in HEK293 cells; conditions: endogenous ASCT2
# Experimental: (§3) The cell lines HEK293 and Flp-In TREx 293 were cultured at 37° C. in a 5% CO2 environment, using Dulbecco's Modified Eagle Medium (DMEM) containing 10% fetal bovine serum (FBS), 100 units/ml Penicillin G and 100 μg/ml streptomycin (P/S). The cells were seeded in a Poly-D-lysine coated 24-well plate at 6×10^4 cells/well. After culturing for 3 days in DMEM Medium containing 10% FBS and P/S, the cell were used for transport activity measurement. Before transport activity measurement, the cells were washed with transport activity measurement buffer (PBS+1 g/L D-glucose) prewarmed to 37° C. and incubated for 10 minutes at 37° C. in 500 μL of buffer. The transport activity measurement was initiated by addition of D-[^3H]serine-containing transport activity buffer at the indicated concentration. The reaction product produced after addition was incubated at 37° C. for the indicated time. The reaction was suspended by removing the D-[^3H]serine-containing transport activity buffer, and the product was washed 3 times with thoroughly cooled transport activity buffer. The cells were dissolved with 500 μL of 0.1 N NaOH and incubated for at least one hour. Protein concentration of the cell lysate was measured by BCA protein assay. The lysate was mixed with 1 mL of Emulsifier Safe (PerkinElmer, MA, USA) and the radioactivity of the lysate was measured with a β-scintillation counter (LSC-8000, Hitachi). In transport activity measurement for Na^+, HBSS (+Na^+: 125 mM NaCl, −Na^+: choline chloride, 4.8 mM KCl, 1.2 mM MgSO4, 1.2 mM KH2PO4, 1.3 mM CaCl2), 5.6 mM D-glucose and 25 mM HEPES was used instead of PBS. For the inhibition experiment, a non-radioactive labeled compound was included as the uptake substrate as shown in the drawing.
# ASCT2 = molecular target: T1, ASCT2 (Homo sapiens, UniProt Q15758); assay: [3H]D-serine transport in HEK293 cells transfected with ASCT2
# T1 construct: expressed in transfected cells; host or cells: HEK293 cells
# T1 sequence (Q15758 1-541): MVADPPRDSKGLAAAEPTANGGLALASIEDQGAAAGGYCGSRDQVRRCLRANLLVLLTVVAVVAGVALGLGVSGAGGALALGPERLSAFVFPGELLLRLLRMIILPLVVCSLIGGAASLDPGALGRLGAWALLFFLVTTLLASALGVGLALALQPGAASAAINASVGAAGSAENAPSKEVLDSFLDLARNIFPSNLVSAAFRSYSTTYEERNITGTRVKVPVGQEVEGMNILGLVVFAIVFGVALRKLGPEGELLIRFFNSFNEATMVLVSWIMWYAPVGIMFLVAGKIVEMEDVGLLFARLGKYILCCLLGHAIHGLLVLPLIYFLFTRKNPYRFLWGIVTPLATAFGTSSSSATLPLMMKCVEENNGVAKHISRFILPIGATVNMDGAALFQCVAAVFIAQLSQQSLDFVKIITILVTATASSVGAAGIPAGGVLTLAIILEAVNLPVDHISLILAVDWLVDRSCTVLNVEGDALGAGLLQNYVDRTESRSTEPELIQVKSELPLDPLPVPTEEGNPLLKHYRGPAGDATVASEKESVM
# Experimental: The cell lines HEK293 and Flp-In TREx 293 were cultured at 37° C. in a 5% CO2 environment, using Dulbecco's Modified Eagle Medium (DMEM) containing 10% fetal bovine serum (FBS), 100 units/ml Penicillin G and 100 μg/ml streptomycin (P/S). The cells were seeded in a Poly-D-lysine coated 24-well plate at 6×10^4 cells/well. After culturing for 3 days in DMEM Medium containing 10% FBS and P/S, the cell were used for transport activity measurement. Before transport activity measurement, the cells were washed with transport activity measurement buffer (PBS+1 g/L D-glucose) prewarmed to 37° C. and incubated for 10 minutes at 37° C. in 500 μL of buffer. The transport activity measurement was initiated by addition of D-[^3H]serine-containing transport activity buffer at the indicated concentration. The reaction product produced after addition was incubated at 37° C. for the indicated time. The reaction was suspended by removing the D-[^3H]serine-containing transport activity buffer, and the product was washed 3 times with thoroughly cooled transport activity buffer. […] Protein concentration of the cell lysate was measured by BCA protein assay. The lysate was mixed with 1 mL of Emulsifier Safe (PerkinElmer, MA, USA) and the radioactivity of the lysate was measured with a β-scintillation counter (LSC-8000, Hitachi). […]
# [6] = system: Flp-In TREx 293 cell line; assay: D-[3H]serine uptake in Flp-In TREx 293 cell line in the presence of inhibitors; conditions: 10 minutes
# Experimental: as §3
# [7] = system: ASCT2-knockout HAP1 cells; assay: D-serine transport in ASCT2-knockout HAP1 cells
# From the text: In order to establish positive candidates for D-serine transporter it was attempted to elucidate the transport function in a cell model. ASCT2 is expressed in several cell lines, constituting a strong background of D-serine accumulation and interfering with identification of novel D-serine transporters. HAP1 cells (Horizon Discovery), which are an essentially haploid cell line, can be advantageously used as a cell model for this purpose. Genetic modification is facilitated since almost all of the chromosomes are single copies, while their transcriptome analysis methods have been established and several gene knockout cell lines can be used. ASCT2-knockout HAP1 cells were therefore obtained and used as a model for D-serine screening.
# The ASCT2-knockout HAP1 cells had weaker D-serine uptake compared to wild type cells (FIG. 17(A)). However, D-serine transport background was still observed in the ASCT2-knockout HAP1 cells. Proteome analysis of the HAP1 cells (Table 2) was used to detect expression of both SNAT1 and SNAT2. SNAT1 and SNAT2 belong to the “system A family” of sodium-dependent small amino acid transporters. We considered that SNAT may contribute to D-serine transport in HAP1 cells. In order to verify this hypothesis, the inhibiting effect of the system A inhibitor MeAIB on D-serine transport was examined.
Compound,"D-serine toxicity effect compared with Mock cells ([1]; 15 mM D-serine, cells transfected with SMCT2, CAT1, TAT1 and SNAT2, 2 days)","D-serine toxicity effect compared with Mock cells ([1]; 25 mM D-serine, cells transfected with GLUT5, SMCT1, SMCT2, CAT1, THTR2 and SNAT2, 2 days)","D-serine toxicity with respect to cell proliferation (Flp-In TREx293 cells; ASCT2 knockdown cells (ASCT2-siRNA) compared with control cells, 2 days, XTT)","EC50 (Flp-In TREx293 cells; Flp-In-T-REx-293, 48 h, 2 days treatment, XTT assay, read-out: EC50 for cell proliferation reduction) [mM]",cell proliferation effect by D-serine treatment [2],cell proliferation effect by serine treatment [3],cytotoxicity compared to the Mock cells [4],cytotoxicity compared to the Mock cells [5],"cell proliferation (Flp-In TREx293 cells; Flp-In TREx 293 control cells, 2 days, XTT)",[3H]D-serine transport (HEK293 cells),[3H]D-serine transport (ASCT2),Uptake of D-[3H]serine [6],D-serine transport [7]
N[C@H](CO)C(=O)O [D-serine],increased toxicity,significant toxicity,alleviated,18.7,lowered proliferation more than in the Mock cells,decrease in cell proliferation; also recorded: lowered proliferation more than in the Mock cells,higher cytotoxicity,higher cytotoxicity,,,,,
N[C@@H](CO)C(=O)O [L-serine],,,,,,did not affect cell proliferation,,,no effect,inhibited,notably inhibited,inhibited,
"CNC(C)(C)C(=O)O [MeAIB, α-Methylaminoisobutyric acid]",,,,,,,,,,not inhibited,,not inhibited,notably reduced
